Laboratory results from ChEMBL document CHEMBL1138430, “Novel tetrahydroisoquinolines are histamine H3 antagonists and serotonin reuptake inhibitors” (Bioorg Med Chem Lett, 2007).
Active and inactive are the calls of the source.

Experiments:
[1] = target: Adenosine receptor A2a (Homo sapiens) (UniProt P29274); experiment: Binding affinity at adenosine A2A receptor at 1 uM
[2] = target: T1, Alpha-1A adrenergic receptor (Homo sapiens) (UniProt P35348); experiment: Binding affinity at adrenergic alpha-1 receptor at 1 uM
T1 sequence (whole entry): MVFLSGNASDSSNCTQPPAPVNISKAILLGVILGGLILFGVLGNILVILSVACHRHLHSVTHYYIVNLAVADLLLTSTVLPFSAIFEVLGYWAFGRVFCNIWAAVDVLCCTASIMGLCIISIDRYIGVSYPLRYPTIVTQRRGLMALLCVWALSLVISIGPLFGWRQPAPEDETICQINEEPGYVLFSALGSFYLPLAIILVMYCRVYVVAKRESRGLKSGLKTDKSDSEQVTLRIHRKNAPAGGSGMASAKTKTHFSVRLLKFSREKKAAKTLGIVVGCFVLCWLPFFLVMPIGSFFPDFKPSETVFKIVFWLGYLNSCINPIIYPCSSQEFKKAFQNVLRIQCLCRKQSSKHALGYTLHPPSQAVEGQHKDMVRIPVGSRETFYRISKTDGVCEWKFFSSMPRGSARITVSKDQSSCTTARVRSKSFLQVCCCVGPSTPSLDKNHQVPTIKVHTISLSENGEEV

[3] = species on record: Homo sapiens; experiment: Binding affinity for chloride channel at 1 uM
[4] = target: 5-hydroxytryptamine receptor 2A (Homo sapiens) (UniProt P28223); experiment: Binding affinity at 5HT2A receptor at 1 uM
5-hydroxytryptamine receptor 2A (Homo sapiens), sequence (P28223 whole entry): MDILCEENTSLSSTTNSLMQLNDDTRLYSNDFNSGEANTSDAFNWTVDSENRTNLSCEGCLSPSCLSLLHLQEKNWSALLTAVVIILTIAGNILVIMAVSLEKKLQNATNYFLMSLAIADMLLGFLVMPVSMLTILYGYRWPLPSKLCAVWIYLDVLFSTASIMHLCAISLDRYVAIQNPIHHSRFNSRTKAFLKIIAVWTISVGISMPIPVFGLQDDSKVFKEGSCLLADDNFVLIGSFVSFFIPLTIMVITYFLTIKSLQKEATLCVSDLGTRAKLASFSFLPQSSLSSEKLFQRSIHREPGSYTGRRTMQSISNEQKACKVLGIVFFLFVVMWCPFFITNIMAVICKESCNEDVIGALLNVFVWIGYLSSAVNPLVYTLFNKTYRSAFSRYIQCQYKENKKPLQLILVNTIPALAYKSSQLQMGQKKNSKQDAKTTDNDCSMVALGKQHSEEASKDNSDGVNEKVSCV

[5] = target: Vasopressin V1a receptor (Homo sapiens) (UniProt P37288); experiment: Binding affinity at vasopressin V1a receptor at 1 uM
Vasopressin V1a receptor (Homo sapiens), sequence (P37288 whole entry, looked up): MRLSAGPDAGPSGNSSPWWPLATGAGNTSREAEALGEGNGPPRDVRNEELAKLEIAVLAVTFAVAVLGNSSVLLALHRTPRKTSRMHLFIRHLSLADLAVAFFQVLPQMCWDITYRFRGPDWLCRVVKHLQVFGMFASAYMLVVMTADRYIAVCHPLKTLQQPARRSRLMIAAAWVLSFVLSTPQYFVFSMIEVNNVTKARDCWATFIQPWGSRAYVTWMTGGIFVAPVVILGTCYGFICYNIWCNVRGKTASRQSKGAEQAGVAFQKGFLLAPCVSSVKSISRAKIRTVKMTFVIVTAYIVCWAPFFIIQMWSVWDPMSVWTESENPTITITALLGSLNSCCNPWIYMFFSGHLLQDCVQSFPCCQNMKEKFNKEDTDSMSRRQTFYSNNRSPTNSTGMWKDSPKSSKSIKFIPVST

[6] = target: Delta-type opioid receptor (Homo sapiens) (UniProt P41143); experiment: Binding affinity at DOP receptor at 1 uM
Delta-type opioid receptor (Homo sapiens), sequence (P41143 whole entry): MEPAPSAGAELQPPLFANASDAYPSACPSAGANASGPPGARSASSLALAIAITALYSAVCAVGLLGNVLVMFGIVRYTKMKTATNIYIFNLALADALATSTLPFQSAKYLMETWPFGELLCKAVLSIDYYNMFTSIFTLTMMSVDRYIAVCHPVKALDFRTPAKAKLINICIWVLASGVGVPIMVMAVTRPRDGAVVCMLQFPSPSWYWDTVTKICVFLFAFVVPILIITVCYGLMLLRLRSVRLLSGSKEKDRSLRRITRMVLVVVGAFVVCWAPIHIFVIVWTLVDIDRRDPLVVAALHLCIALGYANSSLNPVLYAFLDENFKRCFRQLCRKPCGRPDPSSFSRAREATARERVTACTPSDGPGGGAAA

[7] = target: Neurotensin receptor type 1 (Homo sapiens) (UniProt P30989); experiment: Binding affinity at NT1 receptor at 1 uM
Neurotensin receptor type 1 (Homo sapiens), sequence (P30989 whole entry): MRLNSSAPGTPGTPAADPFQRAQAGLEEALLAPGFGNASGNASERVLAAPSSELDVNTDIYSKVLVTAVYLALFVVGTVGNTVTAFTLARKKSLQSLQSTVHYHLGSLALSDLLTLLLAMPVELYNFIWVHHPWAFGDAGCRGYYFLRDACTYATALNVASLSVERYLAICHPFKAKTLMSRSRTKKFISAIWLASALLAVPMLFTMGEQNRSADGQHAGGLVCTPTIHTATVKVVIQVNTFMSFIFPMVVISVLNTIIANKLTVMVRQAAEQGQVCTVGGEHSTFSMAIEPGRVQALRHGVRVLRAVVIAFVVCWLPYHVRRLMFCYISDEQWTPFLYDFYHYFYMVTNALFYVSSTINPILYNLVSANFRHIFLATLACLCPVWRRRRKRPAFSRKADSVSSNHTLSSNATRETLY

[8] = target: T2, Adenosine receptor A3 (Homo sapiens) (UniProt P0DMS8); experiment: Binding affinity at adenosine A3 receptor at 1 uM
T2 sequence (whole entry): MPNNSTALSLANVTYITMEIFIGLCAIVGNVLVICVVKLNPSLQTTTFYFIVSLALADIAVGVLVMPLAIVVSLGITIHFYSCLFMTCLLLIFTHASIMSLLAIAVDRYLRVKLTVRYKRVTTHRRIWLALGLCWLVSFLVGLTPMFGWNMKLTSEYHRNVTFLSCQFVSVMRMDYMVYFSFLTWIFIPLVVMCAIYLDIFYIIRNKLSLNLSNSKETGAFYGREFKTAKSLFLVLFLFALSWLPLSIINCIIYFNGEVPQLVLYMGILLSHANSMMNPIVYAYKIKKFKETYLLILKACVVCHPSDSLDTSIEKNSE

[9] = target: T3, 5-hydroxytryptamine receptor 1A (Homo sapiens) (UniProt P08908); experiment: Binding affinity at 5HT1A receptor at 1 uM
T3 sequence (whole entry): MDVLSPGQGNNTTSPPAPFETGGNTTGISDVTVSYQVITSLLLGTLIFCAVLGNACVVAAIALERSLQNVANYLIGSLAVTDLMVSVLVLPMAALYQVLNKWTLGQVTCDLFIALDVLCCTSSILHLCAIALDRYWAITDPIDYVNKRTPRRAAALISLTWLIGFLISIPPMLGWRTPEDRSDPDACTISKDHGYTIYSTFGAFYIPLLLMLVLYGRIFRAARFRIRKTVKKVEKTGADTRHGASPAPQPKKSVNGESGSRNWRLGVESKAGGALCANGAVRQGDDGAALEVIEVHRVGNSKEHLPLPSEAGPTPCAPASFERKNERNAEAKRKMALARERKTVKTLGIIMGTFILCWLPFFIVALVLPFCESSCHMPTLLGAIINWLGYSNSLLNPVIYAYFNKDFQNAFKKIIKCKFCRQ

[10] = target: D(2) dopamine receptor (Homo sapiens) (UniProt P14416); experiment: Binding affinity at dopamine D2 receptor at 1 uM
D(2) dopamine receptor (Homo sapiens), sequence (P14416 whole entry): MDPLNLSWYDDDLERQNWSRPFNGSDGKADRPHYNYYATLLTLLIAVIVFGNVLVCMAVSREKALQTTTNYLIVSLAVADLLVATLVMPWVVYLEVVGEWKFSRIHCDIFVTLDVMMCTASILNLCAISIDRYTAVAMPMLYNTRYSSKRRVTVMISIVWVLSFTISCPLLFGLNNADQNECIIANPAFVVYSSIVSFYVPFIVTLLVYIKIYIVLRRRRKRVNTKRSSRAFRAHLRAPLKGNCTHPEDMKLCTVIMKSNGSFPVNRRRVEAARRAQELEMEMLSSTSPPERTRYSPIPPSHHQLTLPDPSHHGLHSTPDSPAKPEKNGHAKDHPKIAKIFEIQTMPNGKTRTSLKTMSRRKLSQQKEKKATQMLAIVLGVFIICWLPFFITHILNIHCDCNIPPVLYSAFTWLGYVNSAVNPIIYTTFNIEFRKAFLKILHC

[11] = target: 5-hydroxytryptamine receptor 1B (Homo sapiens) (UniProt P28222); experiment: Binding affinity at 5HT1B receptor at 1 uM
5-hydroxytryptamine receptor 1B (Homo sapiens), sequence (P28222 whole entry): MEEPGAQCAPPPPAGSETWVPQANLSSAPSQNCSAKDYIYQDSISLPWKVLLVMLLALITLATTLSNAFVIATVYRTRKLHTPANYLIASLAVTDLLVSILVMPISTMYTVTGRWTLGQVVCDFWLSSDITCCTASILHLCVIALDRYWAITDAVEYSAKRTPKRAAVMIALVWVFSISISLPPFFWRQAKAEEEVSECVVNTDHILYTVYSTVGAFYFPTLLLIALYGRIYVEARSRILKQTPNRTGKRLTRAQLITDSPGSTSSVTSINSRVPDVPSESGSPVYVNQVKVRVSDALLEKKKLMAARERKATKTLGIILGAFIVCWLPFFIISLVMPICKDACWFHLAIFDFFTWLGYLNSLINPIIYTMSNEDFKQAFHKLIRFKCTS

[12] = target: 5-hydroxytryptamine receptor 5A (Homo sapiens) (UniProt P47898); experiment: Binding affinity at 5HT5A receptor at 1 uM
5-hydroxytryptamine receptor 5A (Homo sapiens), sequence (P47898 whole entry): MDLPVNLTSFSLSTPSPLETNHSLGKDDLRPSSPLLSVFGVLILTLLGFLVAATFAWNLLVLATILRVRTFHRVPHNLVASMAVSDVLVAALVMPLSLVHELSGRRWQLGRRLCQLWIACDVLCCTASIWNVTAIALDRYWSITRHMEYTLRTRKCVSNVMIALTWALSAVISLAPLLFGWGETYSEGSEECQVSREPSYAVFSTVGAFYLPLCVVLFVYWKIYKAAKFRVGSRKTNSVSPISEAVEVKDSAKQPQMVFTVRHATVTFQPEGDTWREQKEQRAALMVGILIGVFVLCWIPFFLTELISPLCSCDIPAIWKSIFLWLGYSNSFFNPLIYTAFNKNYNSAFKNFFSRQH

[13] = target: T4, B2 bradykinin receptor (Homo sapiens) (UniProt P30411); experiment: Binding affinity at bradykinin B2 receptor at 1 uM
T4 sequence (whole entry): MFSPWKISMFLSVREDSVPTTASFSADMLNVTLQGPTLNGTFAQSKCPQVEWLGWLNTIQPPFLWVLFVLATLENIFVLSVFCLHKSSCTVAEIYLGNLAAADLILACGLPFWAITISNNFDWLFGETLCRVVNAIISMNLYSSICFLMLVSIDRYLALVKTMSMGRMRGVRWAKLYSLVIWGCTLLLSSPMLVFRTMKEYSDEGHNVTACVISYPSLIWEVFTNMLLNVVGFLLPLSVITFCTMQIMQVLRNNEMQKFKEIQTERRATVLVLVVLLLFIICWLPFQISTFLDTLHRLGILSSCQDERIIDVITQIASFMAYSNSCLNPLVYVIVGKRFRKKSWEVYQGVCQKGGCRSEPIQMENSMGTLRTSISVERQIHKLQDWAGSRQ

[14] = target: Kappa-type opioid receptor (Homo sapiens) (UniProt P41145); experiment: Binding affinity at KOP receptor at 1 uM
Kappa-type opioid receptor (Homo sapiens), sequence (P41145 whole entry): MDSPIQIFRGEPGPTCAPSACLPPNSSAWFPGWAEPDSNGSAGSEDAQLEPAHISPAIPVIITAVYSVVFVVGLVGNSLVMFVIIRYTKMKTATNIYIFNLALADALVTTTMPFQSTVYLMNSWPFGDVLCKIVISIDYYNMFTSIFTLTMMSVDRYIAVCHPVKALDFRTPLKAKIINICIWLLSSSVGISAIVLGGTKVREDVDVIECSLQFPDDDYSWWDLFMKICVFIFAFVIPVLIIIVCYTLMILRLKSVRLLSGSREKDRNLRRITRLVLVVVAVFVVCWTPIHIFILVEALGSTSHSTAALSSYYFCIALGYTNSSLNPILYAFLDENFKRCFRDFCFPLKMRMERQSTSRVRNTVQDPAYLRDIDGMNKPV

[15] = target: T5, Substance-K receptor (Homo sapiens) (UniProt P21452); experiment: Binding affinity at NK2 receptor at 1 uM
T5 sequence (whole entry): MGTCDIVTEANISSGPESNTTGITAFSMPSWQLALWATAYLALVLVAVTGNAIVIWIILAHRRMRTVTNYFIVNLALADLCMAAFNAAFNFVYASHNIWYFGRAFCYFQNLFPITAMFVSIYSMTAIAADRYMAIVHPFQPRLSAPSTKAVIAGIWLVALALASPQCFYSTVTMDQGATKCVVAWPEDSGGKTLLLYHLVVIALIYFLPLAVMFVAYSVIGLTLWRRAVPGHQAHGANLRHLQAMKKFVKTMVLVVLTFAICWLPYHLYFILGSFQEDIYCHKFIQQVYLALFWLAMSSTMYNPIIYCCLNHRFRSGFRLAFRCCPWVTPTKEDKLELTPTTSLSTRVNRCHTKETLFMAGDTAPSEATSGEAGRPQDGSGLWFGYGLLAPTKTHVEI

[16] = target: 5-hydroxytryptamine receptor 6 (Homo sapiens) (UniProt P50406); experiment: Binding affinity at 5HT6 receptor at 1 uM
5-hydroxytryptamine receptor 6 (Homo sapiens), sequence (P50406 whole entry): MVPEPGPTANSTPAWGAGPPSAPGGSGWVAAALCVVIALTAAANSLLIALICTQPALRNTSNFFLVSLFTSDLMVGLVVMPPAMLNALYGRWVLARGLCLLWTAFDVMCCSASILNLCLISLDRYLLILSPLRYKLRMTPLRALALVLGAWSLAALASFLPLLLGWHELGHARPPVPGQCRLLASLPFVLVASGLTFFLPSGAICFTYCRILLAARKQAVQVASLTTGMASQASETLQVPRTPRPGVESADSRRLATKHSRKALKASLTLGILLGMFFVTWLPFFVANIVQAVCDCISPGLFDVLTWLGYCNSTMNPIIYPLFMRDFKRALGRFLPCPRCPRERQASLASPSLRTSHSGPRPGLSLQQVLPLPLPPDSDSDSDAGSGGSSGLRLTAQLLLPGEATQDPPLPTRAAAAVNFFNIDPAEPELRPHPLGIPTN

Measured: Activity

Adenosine receptor A2a (Homo sapiens), sequence (P29274 whole entry): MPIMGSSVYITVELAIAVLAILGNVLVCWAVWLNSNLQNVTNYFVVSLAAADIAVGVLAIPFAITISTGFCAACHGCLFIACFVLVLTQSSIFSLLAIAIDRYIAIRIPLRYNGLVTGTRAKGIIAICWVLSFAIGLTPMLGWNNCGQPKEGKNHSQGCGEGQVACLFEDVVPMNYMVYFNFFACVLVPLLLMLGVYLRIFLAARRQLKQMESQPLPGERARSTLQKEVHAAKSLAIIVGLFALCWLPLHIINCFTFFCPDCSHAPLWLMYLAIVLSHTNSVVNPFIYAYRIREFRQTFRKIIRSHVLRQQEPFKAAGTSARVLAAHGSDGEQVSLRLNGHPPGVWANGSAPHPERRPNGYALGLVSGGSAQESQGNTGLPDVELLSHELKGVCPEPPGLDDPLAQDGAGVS

COc1ccc([C@@H]2CN(C)Cc3cc(OCCCN4CCOC[C@@H]4C)ccc32)cc1
inactive: all assays above

CSc1ccc(C2CN(C)Cc3cc(OCCCN4CCOCC4)ccc32)cc1 (racemic)
inactive: all assays above

CSc1ccc(C2CN(C)Cc3cc(OCCCN4CCC(F)CC4)ccc32)cc1 (racemic)
inactive: all assays above
